Assay results: PMC5485989, “Role of Free Radicals and Biotransformation in Trichloronitrobenzene-Induced Nephrotoxicity In Vitro” (International Journal of Molecular Sciences, 2017)
Several values for one entry are separate records, joined by “and”; a condition that tells them apart may be missing. Equal values may be shown once. Marks after values point to notes of the source that are not given here.

Assays:
[1] = tested on: isolated renal cortical cells (IRCC); assay: Time and concentration cytotoxicity study, LDH release in IRCC; assay type: cell-based, male Fischer 344 rats; conditions: for Cytotoxicity (LDH release), time and concentration response: 0.5 or 1.0 mM, 15-120 min, significant difference from DMSO control, p < 0.05
Method: To determine the comparative nephrotoxic potential of the four TCNBs in IRCC, a time and concentration response study was performed starting at 15 min and 0.5 or 1.0 mM and adjusting the times tested based on the results (Figure 2).

[2] = tested on: isolated renal cortical cells (IRCC); assay: Effect of antioxidant or biotransformation inhibitor pretreatment on TCNB cytotoxicity, LDH release in IRCC; conditions: 1.0 mM 2,3,4-TCNB alone, 60 min; one value per pretreatment experiment; mean ± S.E., n = 4
Method: Untreated rats were anesthetized with pentobarbital (75 mg/kg, i.p.) and isolated renal cortical cells (IRCC) were obtained by using the collagenase perfusion method. Initial cell viability was determined by measuring trypan blue (2% w/v) exclusion and lactate dehydrogenase (LDH) release. […] IRCC were then exposed to various concentrations of a TCNB (0, 0.5, or 1.0 mM) for 15, 30, 60, 90, or 120 min. Following the incubation period, flasks were removed and placed on ice. Samples (0.5 mL) were taken for LDH release assays. Briefly, the samples were centrifuged (3000× g, 3 min), the was supernatant decanted and saved, and the pellet was disrupted with 1 mL of 10% Triton X-100 solution to release cellular LDH activity. LDH activity was then determined in each fraction (supernatant and pellet) as previously described using a kinetic assay based on the amount of NADH produced from NAD [57]. The LDH released was expressed as % of total (supernatant plus pellet).
Concentrations used in these experiments were 0.5 mM (3,4,5-TCNB) or 1.0 mM (2,3,4-, 2,4,5- and 2,4,6-TCNB). Incubation times with a TCNB added were 30 min (3,4,5-TCNB), 60 min (2,3,4-TCNB), or 90 min (2,4,5- and 2,4,6-TCNB). The pretreatment times and concentrations for all of the pretreatments are shown below in Table 5.

renal cortical slices = conditions: 120 min incubations; cited from earlier work
[3] = tested on: isolated renal cortical cells (IRCC); assay: 4-HNE adduction in IRCC (Western blot); assay type: cell-based, male Fischer 344 rats; conditions: 0.5 or 1.0 mM, 15 or 30 min
Method: (§1) To determine if oxidative stress plays a role in 3,4,5-TCNB nephrotoxicity, experiments were conducted to determine the temporal aspects of free radical damage as evidenced by protein carbonylation (OxyBlot) and 4-hydroxynonenal (4-HNE) adduction.
(§2) Protein carbonylation was detected using OxyBlot™ Protein Oxidation (Millipore S7150; Temecula, CA, USA). Samples were prepared according to the manufacturer’s protocol and an equal amount of protein (25 µg) and volume were loaded in each lane of a 12.5% polyacrylamide gel and transferred to a nitrocellulose membrane (Whatman; 10-439-196; Dassel, Germany). The transfer was confirmed using a Memcode reversible protein stain kit (Pierce Biotechnology, Fisher Scientific) and the protein was used to normalize each lane. Membranes were incubated overnight at 4 °C with primary antibody (1:150) for OxyBlot. Goat anti-rabbit horse radish peroxidase (HRP, 1:300) was the secondary antibody. Protein with 4-hydroxynonenal (4-HNE) reduced Micahel adducts were prepared as described previously with the exception that 45 µg of protein was used for the gel. The membranes were developed using Amersham^TM ECLTM Western Blotting Reagents (GE Healthcare; Buckinghamshire, UK) and the results were viewed and analyzed using a Bio-Rad Chemidoc system with BioRad Chemidoc densitometry software (version 4.0.1, Catalog No. 170-9690, BioRad, Hercules, CA, USA).

[4] = tested on: isolated renal cortical cells (IRCC); assay: Protein carbonylation in IRCC (OxyBlot); assay type: cell-based, male Fischer 344 rats
Method: as §1, §2

kidney = tested on: kidney; set-up: method as in PMID 2576285; conditions: 1.0 mmol/kg, intraperitoneally, cited from earlier work

Row | Structure (SMILES) | Cytotoxicity (LDH release), time and concentration response [1] | % of lactate dehydrogenase release, 2,3,4-TCNB [2] | Lowest concentration inducing in vitro nephrotoxicity (increased LDH release and decreased pyruvate-stimulated gluconeogenesis) (renal cortical slices) | Concentration at which cytotoxicity was evident ([1]; as early as 30 min) | Order of decreasing nephrotoxic potential ([1]; based on time of onset, lowest concentration required and magnitude of LDH release) | 4-HNE levels [3] | Protein carbonylation ([4]; 1.0 mM, 30 min, p = 0.017) | Protein carbonylation ([4]; 0.5 or 1.0 mM, 15 or 30 min) | Renal effects (kidney; 48 h after treatment) | Urinary creatinine and blood urea nitrogen (BUN) concentrations (kidney)
1 | O=[N+]([O-])c1ccc(Cl)c(Cl)c1Cl [2,3,4-TCNB, 2,3,4-trichloronitrobenzene] | exhibited cytotoxicity starting after 15 min (1.0 mM) and 60 min exposure (0.5 and 1.0 mM), but no cytotoxicity was observed at 15 min | 28 ± 2 ^c % and 21 ± 1 ^c % and 22 ± 1 ^c % and 18 ± 1 ^c % and 20 ± 2 ^c % and 23 ± 2 ^c % and 20 ± 1 ^c % and 19 ± 1 ^c % | 0.5 mM |  |  |  |  |  |  | 
2 | O=[N+]([O-])c1cc(Cl)c(Cl)c(Cl)c1 [3,4,5-TCNB] | induced cytotoxicity at 30 and 60 min (0.5 and 1.0 mM) but not at 15 min |  | 0.5 mM | 500 µM | most potent nephrotoxicant | not increased | slightly decreased | not increased |  | 
3 | O=[N+]([O-])c1ccc(Cl)cc1 [4-chloronitrobenzene] |  |  |  |  |  |  |  |  | induced diuresis, increased N-acetyl-β-D-glucosaminidase excretion, and caused swelling of the kidney | not altered
